Source: PMC7380196, “Unveiling the activation dynamics of a fold-switch bacterial glycosyltransferase by ^19F NMR” (The Journal of Biological Chemistry, 2020)

Target: T1, PimA (Mycolicibacterium smegmatis, UniProt A0QWG6)
T1 construct: recombinant from pET29a-pimA in E. coli BL21(DE3) pLysS; purified
T1 sequence (A0QWG6 1-386): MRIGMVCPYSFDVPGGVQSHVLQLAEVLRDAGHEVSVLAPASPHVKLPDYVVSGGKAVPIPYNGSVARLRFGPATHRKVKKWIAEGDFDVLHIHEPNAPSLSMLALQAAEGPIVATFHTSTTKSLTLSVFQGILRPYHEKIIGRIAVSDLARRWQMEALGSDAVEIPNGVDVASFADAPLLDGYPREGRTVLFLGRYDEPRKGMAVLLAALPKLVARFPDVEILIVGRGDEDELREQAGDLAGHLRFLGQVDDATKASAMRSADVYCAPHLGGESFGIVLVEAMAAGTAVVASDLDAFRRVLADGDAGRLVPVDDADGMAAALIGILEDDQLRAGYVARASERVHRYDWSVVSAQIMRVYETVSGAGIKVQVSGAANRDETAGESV
Assay: thermal unfolding by far-UV CD at […] nm
Assay type: binding
Conditions: 10 mM Tris-HCl, pH 7.5; 10 uM protein, ligand 1:15

Nc1nc2c(ncn2[C@@H]2O[C@H](COP(=O)(O)OP(=O)(O)O)[C@@H](O)[C@H]2O)c(=O)[nH]1 [GDP]
Tm: after the addition of GDP, wild-type PimA, PimA^R144C, and PimA^R144C-TFA displayed a clear increase
